Laboratory results: PubChem BioAssay (NCI)
Where “and” joins values, the source holds several entries; their conditions need not be identical. Equal entries are not always repeated.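 Assay format: 96-well plates, 48-hour exposure. GI50 marks 50% less growth. At the TGI there is no net growth.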

Experiments:
Assay in all cases: NCI-60 cell line screen, 48 h
DMS 114 small cell lung = test system: DMS 114 small cell lung
KM20L2 colon = test system: KM20L2 colon
LXFL 529 NSCLC = test system: LXFL 529 NSCLC
M19-MEL melanoma = test system: M19-MEL melanoma
SNB-78 CNS = test system: SNB-78 CNS
XF 498 CNS = test system: XF 498 CNS
DLD-1 colon = test system: DLD-1 colon
MCF7 breast = test system: MCF7 breast
PC-3 prostate = test system: PC-3 prostate
T-47D breast = test system: T-47D breast

CN(C)CC(/C(Cc1ccccc1)=N\NC(=O)C[n+]1ccccc1)c1ccccc1 (centres undefined)
TGI (DMS 114 small cell lung): > 100 µM
TGI (KM20L2 colon): > 100 µM
TGI (LXFL 529 NSCLC): > 100 µM
TGI (M19-MEL melanoma): > 100 µM
TGI (SNB-78 CNS): > 100 µM
TGI (XF 498 CNS): > 100 µM

CC1=CC2CC(C)=C(CC[C@]3(C)CC[C@H]([C@@H](C)C(=O)O)OO3)C(C)(C)C2CC1 (some centres undefined)
TGI (DLD-1 colon): 0.426 µM
TGI (DMS 114 small cell lung): 0.973 µM
TGI (KM20L2 colon): 2.63 µM
TGI (LXFL 529 NSCLC): 0.414 µM
TGI (M19-MEL melanoma): 3.05 µM
TGI (SNB-78 CNS): 4.09 µM
TGI (XF 498 CNS): 0.768 µM

N#C/C(=C\c1ccccc1O)C(N)=O
TGI (DLD-1 colon): > 100 µM
TGI (DMS 114 small cell lung): > 100 µM
TGI (KM20L2 colon): > 100 µM
TGI (LXFL 529 NSCLC): > 100 µM
TGI (M19-MEL melanoma): > 100 µM
TGI (SNB-78 CNS): > 100 µM
TGI (XF 498 CNS): > 100 µM

CC1=NN(C(=O)c2ccccc2O)C(=O)/C1=C/c1ccc([N+](=O)[O-])cc1
TGI (DLD-1 colon): > 100 µM
TGI (DMS 114 small cell lung): 7.81 µM
TGI (KM20L2 colon): > 100 µM
TGI (LXFL 529 NSCLC): > 100 µM
TGI (M19-MEL melanoma): > 100 µM
GI50 (MCF7 breast): 0.392 µM
TGI (MCF7 breast): > 100 µM
GI50 (PC-3 prostate): 0.371 µM
TGI (PC-3 prostate): > 100 µM
TGI (SNB-78 CNS): > 100 µM
GI50 (T-47D breast): 0.222 µM
TGI (T-47D breast): > 100 µM
TGI (XF 498 CNS): > 100 µM

Cc1cccc(C(=O)c2cccc3ccccc23)c1C(=O)O
TGI (DLD-1 colon): > 100 µM
TGI (DMS 114 small cell lung): 13.8 µM
TGI (KM20L2 colon): > 100 µM
TGI (LXFL 529 NSCLC): > 100 µM
TGI (M19-MEL melanoma): > 100 µM
TGI (SNB-78 CNS): > 100 µM
TGI (XF 498 CNS): > 100 µM

CCOc1ccccc1NC(=O)CCC(=O)OC
TGI (DLD-1 colon): > 100 µM
TGI (DMS 114 small cell lung): > 100 µM
TGI (KM20L2 colon): > 100 µM
TGI (LXFL 529 NSCLC): > 100 µM
TGI (M19-MEL melanoma): > 100 µM
TGI (SNB-78 CNS): > 100 µM
TGI (XF 498 CNS): > 100 µM

Cc1ccc(C)c(NC(=O)C(=O)CC(=O)C2CCOC2=O)c1 (centres undefined)
TGI (DLD-1 colon): > 100 µM
TGI (DMS 114 small cell lung): > 100 µM
TGI (KM20L2 colon): > 100 µM
TGI (LXFL 529 NSCLC): > 100 µM
TGI (M19-MEL melanoma): > 100 µM
TGI (SNB-78 CNS): > 100 µM
TGI (XF 498 CNS): > 100 µM

O=C1OC(=O)c2c1c(-c1ccccc1)cn2-c1ccc(Cl)cc1
TGI (DLD-1 colon): > 100 µM
TGI (DMS 114 small cell lung): > 100 µM
TGI (KM20L2 colon): > 100 µM
TGI (LXFL 529 NSCLC): > 100 µM
TGI (M19-MEL melanoma): > 100 µM
TGI (SNB-78 CNS): > 100 µM
TGI (XF 498 CNS): > 100 µM

C#CCC[C@@H]1O[C@@]1(C)CC/C=C(\C)CC/C=C/C=O
TGI (DMS 114 small cell lung): 35.1 µM
TGI (KM20L2 colon): > 100 µM
TGI (LXFL 529 NSCLC): 51.1 µM
TGI (M19-MEL melanoma): 48.1 µM
TGI (SNB-78 CNS): 77.3 µM
TGI (XF 498 CNS): 58.2 µM

COc1c2c(c3c(c1C1OC(C)[C@@H](C)O1)CC(C)(C)O3)C(=O)c1ccccc1C2=O (some centres undefined)
TGI (DLD-1 colon): > 100 µM
TGI (DMS 114 small cell lung): > 100 µM
TGI (KM20L2 colon): > 100 µM
TGI (LXFL 529 NSCLC): > 100 µM
TGI (M19-MEL melanoma): > 100 µM
TGI (SNB-78 CNS): > 100 µM
TGI (XF 498 CNS): > 100 µM

[O-]/[N+](=C\c1ccccc1)[C@H](COCc1ccccc1)c1ccccc1
TGI (DLD-1 colon): > 100 µM
TGI (DMS 114 small cell lung): > 100 µM
TGI (KM20L2 colon): > 100 µM
TGI (LXFL 529 NSCLC): > 100 µM
TGI (M19-MEL melanoma): > 100 µM
TGI (SNB-78 CNS): > 100 µM
TGI (XF 498 CNS): > 100 µM

CC[P+](C)(Cc1ccccc1)c1ccccc1 (centres undefined)
TGI (DLD-1 colon): > 100 µM
TGI (DMS 114 small cell lung): > 100 µM
TGI (KM20L2 colon): > 100 µM
TGI (LXFL 529 NSCLC): > 100 µM
TGI (M19-MEL melanoma): > 100 µM
TGI (SNB-78 CNS): > 100 µM
TGI (XF 498 CNS): > 100 µM

Nc1nc(CCC(=O)Nc2cccc(C(F)(F)F)c2)cc(-c2cccc3ccccc23)n1
TGI (DLD-1 colon): > 100 µM
TGI (DMS 114 small cell lung): > 100 µM
TGI (KM20L2 colon): > 100 µM
TGI (LXFL 529 NSCLC): > 100 µM
TGI (M19-MEL melanoma): > 100 µM
TGI (SNB-78 CNS): > 100 µM
TGI (XF 498 CNS): > 100 µM

FC(F)(F)C1(Cl)C(c2ccccc2)=C1c1ccccc1
TGI (DLD-1 colon): 28.3 µM
TGI (DMS 114 small cell lung): 25.6 µM
TGI (KM20L2 colon): 30.1 µM
TGI (LXFL 529 NSCLC): 26.3 µM
TGI (M19-MEL melanoma): 27.7 µM
TGI (SNB-78 CNS): 33.1 µM
TGI (XF 498 CNS): 26.5 µM

CC1[C@@H]2[C@@H](C=C3C4CCC5Cc6nc7c(nc6C[C@@]5(C)C4C[C@H](O)[C@]32CO)CC2CCC3C4=C[C@H]5O[C@@]6(O[C@@](C)(CO)C[C@@H]6O)C(C)[C@@]5(O)[C@]4(C)[C@@H](O)CC3[C@]2(C)C7)O[C@]12CCC(C)(C)O2 (some centres undefined)
GI50 (DLD-1 colon): 0.583 µM
TGI (DLD-1 colon): > 3.65 µM
TGI (DMS 114 small cell lung): > 3.65 µM
GI50 (KM20L2 colon): 0.00719 µM
TGI (KM20L2 colon): 0.619 µM
TGI (LXFL 529 NSCLC): 0.0713 µM
GI50 (M19-MEL melanoma): 2.13 µM
TGI (M19-MEL melanoma): > 3.65 µM
TGI (MCF7 breast): 0.505 µM
GI50 (SNB-78 CNS): < 0.000365 µM
TGI (SNB-78 CNS): 0.34 µM and 0.642 µM
GI50 (XF 498 CNS): < 0.000365 µM

COc1ccc(/C=C2\CN(C)Cc3c2nc(N)nc3-c2ccc(OC)cc2)cc1
TGI (DLD-1 colon): > 100 µM
TGI (DMS 114 small cell lung): > 100 µM
TGI (KM20L2 colon): > 100 µM
TGI (LXFL 529 NSCLC): > 100 µM
TGI (M19-MEL melanoma): > 100 µM
TGI (SNB-78 CNS): > 100 µM
TGI (XF 498 CNS): > 100 µM

CCOc1ccc(NC(=O)CC2SC(=Nc3ccc(Cl)cc3)NC2=O)cc1 (centres undefined)
TGI (DLD-1 colon): > 100 µM
TGI (DMS 114 small cell lung): > 100 µM
TGI (KM20L2 colon): > 100 µM
TGI (LXFL 529 NSCLC): > 100 µM
TGI (M19-MEL melanoma): > 100 µM
TGI (XF 498 CNS): > 100 µM

COc1cc2c(cc1O)C=NCC2
TGI (DLD-1 colon): > 100 µM
TGI (DMS 114 small cell lung): > 100 µM
TGI (KM20L2 colon): > 100 µM
TGI (LXFL 529 NSCLC): > 100 µM
TGI (M19-MEL melanoma): > 100 µM
TGI (SNB-78 CNS): > 100 µM
TGI (XF 498 CNS): > 100 µM

CCC[CH2][Sn]([CH2]CCC)([O]C(=O)c1c(F)cccc1F)[O]C(=O)c1c(F)cccc1F
GI50 (DLD-1 colon): 0.624 µM
TGI (DLD-1 colon): 1.91 µM
GI50 (DMS 114 small cell lung): 0.214 µM
TGI (DMS 114 small cell lung): 0.602 µM
GI50 (KM20L2 colon): 1.61 µM
TGI (KM20L2 colon): 2.98 µM
GI50 (LXFL 529 NSCLC): 0.139 µM
TGI (LXFL 529 NSCLC): 0.318 µM
GI50 (M19-MEL melanoma): 0.364 µM
TGI (M19-MEL melanoma): 1.43 µM
GI50 (SNB-78 CNS): 0.333 µM
TGI (SNB-78 CNS): 1.47 µM
GI50 (XF 498 CNS): 1.31 µM
TGI (XF 498 CNS): 2.59 µM

c1ccc(SC2(Sc3ccccc3)CCCC2)cc1
TGI (DLD-1 colon): > 100 µM
TGI (DMS 114 small cell lung): > 100 µM
TGI (KM20L2 colon): > 100 µM
TGI (M19-MEL melanoma): > 100 µM
TGI (SNB-78 CNS): > 100 µM
TGI (XF 498 CNS): > 100 µM
